Measurements from patent US20230296616A1, “ARGININE FLUORESCENT PROBE, PREPARATION METHOD THEREFOR AND APPLICATION THEREOF” (East China University of Science and Technology, priority 2020, published 2023).

Legend:
[1] = specific detection of 20 amino acids by arginine fluorescent sensors; assay type: biochemical; details: FIG. 8
[2] = biological target: T1, STM4351-cpYFP fusion protein, insertion site 199/200, SEQ ID NO: 22 (arginine-binding protein STM4351 derived from Salmonella Typhimurium, SEQ ID NO: 1) (Salmonella enterica, UniProt Q8ZKA9, INS199[…]); experiment: concentration gradient arginine detection (fluorescence ratio titration)
T1 construct: His-tag, pET28a, E. coli JM109(DE3), purified
Description: (§1) • 1. The pET28a based arginine sensor plasmid was transformed into JM109 (DE3), incubated inverted overnight, and the clones were picked from the plates into 250 ml Erlenmeyer flasks, placed in a shaker at 37° C. and incubated at 220 rpm to OD=0.4-0.8, then 1/1000 (V/V) of IPTG (1 M) was added to induce expression at 18° C. for 24-36 h. • 2. Upon completion of inducible expression, cells were harvested by centrifugation at 4000 rpm for 30 min, resuspended in 50 mM phosphate buffer and disrupted ultrasonically until the broth were clear, centrifuged at 9600 rpm at 4° C. for 20 min. • 3. The centrifuged supernatant was used to obtain protein by purification through a self packed nickel column affinity chromatography column, and the protein obtained after nickel column affinity chromatography was further used to obtain protein dissolved in 20 mM MOPS buffer (pH 7.4) or phosphate buffer PBS. • 4. After purified arginine-binding protein muteins were subjected to SDS-PAGE, sensors were diluted to a protein solution having a final concentration of 5-10 μM using assay buffer (100 mm HEPES, 100 mM NaCl, pH 7.3) or phosphate buffer PBS. Arginine was formulated as a stock solution at a final concentration of 1 M with assay buffer (20 mM MOPS, pH 7.4) or phosphate buffer PBS. • 5. 100 μl 5 μM of protein solution was taken, incubated at 37° C. for 5 min, arginine was added to mix to a final concentration of 100 mM, respectively, the optical absorption of the protein at 340 nm was determined using a multifunctional fluorescence microplate reader. • 6. 100 μl 1 μM of fluorescent sensor solution was taken, incubated at 37° C. for 5 min, arginine was added for titration, and the fluorescence intensity of 528 nm emission after 485 nm fluorescence excitation of the protein was measured. The fluorescence excitation and emission determination of the samples were done using a multifunctional fluorescence microplate reader. • 7. 100 μl 1 μM of fluorescent sensor solution was taken, incubated at 37° C. for 5 min, and arginine was added to determine the absorption and fluorescence spectra of the sensor proteins. Determination of the absorption and fluorescence spectra of the samples was done by spectrophotometer and spectrofluorometer.

[3] = biological target: T2, STM4351-cpYFP fusion protein, insertion site 200/205, SEQ ID NO: 29 (arginine-binding protein STM4351 derived from Salmonella Typhimurium, SEQ ID NO: 1) (Salmonella enterica, UniProt Q8ZKA9, DELINS201-204[…]); experiment: as above
T2 construct: His-tag, pET28a, E. coli JM109(DE3), purified
Description: as §1

[4] = biological target: T3, STM4351-cpYFP fusion protein, insertion site 105/110, SEQ ID NO: 11 (arginine-binding protein STM4351 derived from Salmonella Typhimurium, SEQ ID NO: 1) (Salmonella enterica, UniProt Q8ZKA9, DELINS107-109[…]); experiment: as above
T3 construct: His-tag, pET28a, E. coli JM109(DE3), purified
Description: as §1

[5] = biological target: T4, STM4351-cpYFP fusion protein, insertion site 200/203, SEQ ID NO: 27 (arginine-binding protein STM4351 derived from Salmonella Typhimurium, SEQ ID NO: 1) (Salmonella enterica, UniProt Q8ZKA9, DELINS201-202[…]); experiment: as above
T4 construct: His-tag, pET28a, E. coli JM109(DE3), purified
Description: as §1

[6] = biological target: T5, STM4351-199/200-cpYFP, SEQ ID NO: 22, expressed in the cytosol of HeLa cells (arginine-binding protein STM4351 derived from Salmonella Typhimurium, SEQ ID NO: 1 (Salmonella enterica, UniProt Q8ZKA9, INS199[…]); experiment: dynamic monitoring of arginine transmembrane transport in HeLa cells; assay type: cell-based; details: after 2 hours of starvation, 10 mM arginine, 20 minutes
T5 construct: expressed in cytosol of HeLa cells from pAAV plasmid
Description: • 1. PAAV-based arginine optical sensor plasmids were transfected into HeLa by using the transfection reagent Lipofectamine2000 (Invitrogen) and incubated in a cell incubator at 37° C. with 5% CO2. After the exogenous gene was fully expressed for 24˜36 hours, the fluorescence detection was performed. • 2. After induction of expression, adherent HeLa cells were washed three times with PBS and placed in HMS solution for fluorescence microscopy and microplate reader assays, respectively.
36 hours after transfection of HeLa cells with plasmids encoding cytosolically expressed optical sensor STM4351-199/200-cpYFP, cells were rinsed using PBS, placed in HMS solution, and then changes in the ratio of the fluorescence intensity at 528 nm emission excited at 420 nm to that at 528 nm emission excited at 485 nm were detected over 40 min. After 2 hours of starvation, the ratio 485/420 increased gradually after adding 10 mM arginine for 20 minutes, and the highest ratio was 2.2 times. Same as STM4351-105/110-cpYFP sensor and STM4351-200/203-cpYFP sensor.

[7] = biological target: T6, STM4351-107/111-cpYFP variant D177N, SEQ ID NO: 41 (arginine-binding protein STM4351 derived from Salmonella Typhimurium) (Salmonella enterica, UniProt Q8ZKA9, D177N/DELINS108-110[…]); experiment: fluorescence detection of mutated cpYFP optical sensor; assay type: biochemical; details: D177N-107/111; detected according to Example 2
T6 construct: His-tag, pET28a, E. coli JM109(DE3), purified
Description: (§2) • 1. The pET28a based arginine sensor plasmid was transformed into JM109 (DE3), incubated inverted overnight, and the clones were picked from the plates into 250 ml Erlenmeyer flasks, placed in a shaker at 37° C. and incubated at 220 rpm to OD=0.4-0.8, then 1/1000 (V/V) of IPTG (1 M) was added to induce expression at 18° C. for 24-36 h. • 2. Upon completion of inducible expression, cells were harvested by centrifugation at 4000 rpm for 30 min, resuspended in 50 mM phosphate buffer and disrupted ultrasonically until the broth were clear, centrifuged at 9600 rpm at 4° C. for 20 min. • 3. […] 100 μl 5 μM of protein solution was taken, incubated at 37° C. for 5 min, arginine was added to mix to a final concentration of 100 mM, respectively, the optical absorption of the protein at 340 nm was determined using a multifunctional fluorescence microplate reader. • 6. 100 μl 1 μM of fluorescent sensor solution was taken, incubated at 37° C. for 5 min, arginine was added for titration, and the fluorescence intensity of 528 nm emission after 485 nm fluorescence excitation of the protein was measured. The fluorescence excitation and emission determination of the samples were done using a multifunctional fluorescence microplate reader. • 7. […] Determination of the absorption and fluorescence spectra of the samples was done by spectrophotometer and spectrofluorometer. […]

[8] = biological target: T7, STM4351-107/111-cpYFP variant S30N, SEQ ID NO: 40 (arginine-binding protein STM4351 derived from Salmonella Typhimurium) (Salmonella enterica, UniProt Q8ZKA9, DELINS108-110[…]/S30N); experiment: as above; assay type: biochemical; details: S30N-107/111; detected according to Example 2
T7 construct: His-tag, pET28a, E. coli JM109(DE3), purified
Description: as §2

[9] = biological target: T8, STM4351-104/110-cpYFP, SEQ ID NO: 7 (arginine-binding protein STM4351 derived from Salmonella Typhimurium, SEQ ID NO: 1) (Salmonella enterica, UniProt Q8ZKA9, DELINS105-109[…]); experiment: fluorescence spectra of sensor with and without arginine; assay type: biochemical; details: 500 mM vs 0 mM arginine
T8 construct: His-tag, pET28a, E. coli JM109(DE3), purified
Description: as §2

[10] = biological target: T9, STM4351-cpYFP fusion protein, insertion site 107/111, SEQ ID NO: 15 (arginine-binding protein STM4351 derived from Salmonella Typhimurium, SEQ ID NO: 1) (Salmonella enterica, UniProt Q8ZKA9, DELINS108-110[…]); experiment: screening of purified fusion protein for arginine response; assay type: biochemical; details: cpYFP at 107/111; 100 mM arginine vs without arginine
T9 construct: His-tag, pET28a, E. coli JM109(DE3), purified
Description: as §1

[11] = biological target: T10, STM4351-cpYFP fusion protein, insertion site 104/110, SEQ ID NO: 7 (arginine-binding protein STM4351 derived from Salmonella Typhimurium, SEQ ID NO: 1) (Salmonella enterica, UniProt Q8ZKA9, DELINS105-109[…]); experiment: as above; assay type: biochemical; details: cpYFP at 104/110; 100 mM arginine vs without arginine
T10 construct: His-tag, pET28a, E. coli JM109(DE3), purified
Description: as §1

[12] = biological target: T1, STM4351-cpYFP fusion protein, insertion site 199/200, SEQ ID NO: 22 (arginine-binding protein STM4351 derived from Salmonella Typhimurium, SEQ ID NO: 1); experiment: as above; assay type: biochemical; details: cpYFP at 199/200; 100 mM arginine vs without arginine
Description: as §1

[13] = biological target: T2, STM4351-cpYFP fusion protein, insertion site 200/205, SEQ ID NO: 29 (arginine-binding protein STM4351 derived from Salmonella Typhimurium, SEQ ID NO: 1); experiment: as above; assay type: biochemical; details: cpYFP at 200/205; 100 mM arginine vs without arginine
Description: as §1

[14] = biological target: T3, STM4351-cpYFP fusion protein, insertion site 105/110, SEQ ID NO: 11 (arginine-binding protein STM4351 derived from Salmonella Typhimurium, SEQ ID NO: 1); experiment: as above; assay type: biochemical; details: cpYFP at 105/110; 100 mM arginine vs without arginine
Description: as §1

[15] = biological target: T4, STM4351-cpYFP fusion protein, insertion site 200/203, SEQ ID NO: 27 (arginine-binding protein STM4351 derived from Salmonella Typhimurium, SEQ ID NO: 1); experiment: as above; assay type: biochemical; details: cpYFP at 200/203; 100 mM arginine vs without arginine
Description: as §1

199/201: arginine sensor: cpYFP inserted at site 199/201 of STM4351
specificity for arginine [1]: good specificity for arginine

N=C(N)NCCC[C@H](N)C(=O)O [arginine]
change amplitude [2]: 11.0 times
change amplitude [3]: 3.0 times
change amplitude [4]: 4.3 times
change amplitude [5]: 8.6 times
highest ratio 485/420 [6]: 2.2 times
response to arginine relative to control [7]: more than 3 times
response to arginine relative to control [8]: more than 3 times
decrease of fluorescence intensity excited at 420 nm ([9]; excited at 420 nm): 1.4 times
increase in fluorescence intensity under excitation at 485 nm ([9]; excited at 485 nm): 2.0 fold
response to arginine relative to control [10]: more than 2 fold
response to arginine relative to control [11]: more than 2 fold
response to arginine relative to control [12]: more than 2 fold
response to arginine relative to control [13]: more than 2 fold
response to arginine relative to control [14]: more than 2 fold
response to arginine relative to control [15]: more than 2 fold
